{"source": "ChEMBL document CHEMBL3507680", "about": "“University of Dundee, Gates Library screen for HepG2 cell viability”"}
{"assay": "Human HepG2 cell viability assay in 384 well format", "format": "toxicity, cell-based", "design": "dose 125 nL, time 70.5 hour; cytotoxicity at 70.5 h: concentration not given beside the values", "conditions": "HepG2 cells, read-out: Inhibition", "units": {"cytotoxicity at 70.5 h": "%"}}
{"molecule": "CC(C)(C)c1cn(C2CCN(C(=O)c3cncnc3)CC2)nn1", "cytotoxicity at 70.5 h": 18}
{"molecule": "CC(C)NC1CCN(CCc2ccc3c(c2)CCO3)CC1", "cytotoxicity at 70.5 h": 9.93}
{"molecule": "O=C(NCC1CC1)C1CCC2(CN(C(=O)c3ccno3)C2)O1", "note": "(stereo not given)", "cytotoxicity at 70.5 h": -13.9}
{"molecule": "Cc1cc(C)n(CC2CCCN2C(=O)CCNc2ncccn2)n1", "note": "(stereo not given)", "cytotoxicity at 70.5 h": -4.55}
{"molecule": "COc1ncc(CN2CCC3(CCCN(CC4CCCCC4)C3)C2)cn1", "note": "(stereo not given)", "cytotoxicity at 70.5 h": 26.8}
{"molecule": "COc1ncc(-c2ccc(O)cc2)c(OC)n1", "cytotoxicity at 70.5 h": -6.77}
{"molecule": "CC(c1ccco1)N(C)C(=O)NCCOc1ccc(C#N)cc1", "note": "(stereo not given)", "cytotoxicity at 70.5 h": -8.15}
{"molecule": "CCNc1ncc2c(n1)CN(c1ccc(OC(F)(F)F)cc1)C2=O", "cytotoxicity at 70.5 h": -15.6}
{"molecule": "Cc1cc(S(=O)(=O)N2CCCc3cc(Cl)ccc32)sc1C(=O)O", "cytotoxicity at 70.5 h": 2.62}
{"molecule": "COc1ccccc1C1CCN(c2ccc3cc[nH]c3n2)CC1", "cytotoxicity at 70.5 h": -7.33}
{"molecule": "NC(=O)CN1CCN(c2ccnc3c(F)ccc(F)c23)CC1", "cytotoxicity at 70.5 h": -1.57}
{"molecule": "O=C(NCc1nc2ccccc2[nH]1)c1cc2n(n1)CCCO2", "cytotoxicity at 70.5 h": -1.37}
{"molecule": "O=C(NCc1ccc2c(c1)CCCO2)c1ccc(C2CCNC2)cc1", "note": "(stereo not given)", "cytotoxicity at 70.5 h": -18}
{"molecule": "Cc1ccc(CN2CCc3c(nc4cc(C5CC5)nn4c3O)C2)s1", "cytotoxicity at 70.5 h": 18.3}
{"molecule": "Cn1cc(CN2CC[C@H]3O[C@@H](C(=O)NC4CC4)CC[C@H]32)cn1", "cytotoxicity at 70.5 h": -1.4}
{"molecule": "CCC(C)N(Cc1cccnc1)Cc1cc2c(cc1Cl)OCO2", "note": "(stereo not given)", "cytotoxicity at 70.5 h": -1.59}
{"molecule": "CCC(=O)N1CC[C@H]2[C@H](C[C@@H](CN3CCCC3)N2c2nccs2)C1", "cytotoxicity at 70.5 h": -3.2}
{"molecule": "Cn1cnc2c1CCN(Cc1c(Cl)ccc3cccnc13)C2", "cytotoxicity at 70.5 h": 0.125}
{"molecule": "COc1ccccc1OCC(=O)NS(=O)(=O)c1ccccc1Br", "cytotoxicity at 70.5 h": 0.476}
{"molecule": "O=S(=O)(Cc1ccccc1F)N1CCCC1c1nnc2n1CCCCC2", "note": "(stereo not given)", "cytotoxicity at 70.5 h": -6.25}
{"molecule": "O=C(CC1CC1)N[C@@H]1CN(C(=O)c2cccs2)C[C@@H]2CCCO[C@@H]21", "cytotoxicity at 70.5 h": -7.28}
{"molecule": "CCn1ccnc1CN1CCCn2nc(CNC(=O)C3CCC3)cc2C1", "cytotoxicity at 70.5 h": -7.76}
{"molecule": "O=C1N(c2ccc(F)cc2)Cc2n[nH]c(=O)n21", "cytotoxicity at 70.5 h": -2.51}
{"molecule": "Cc1nccn1C1(C(=O)O)CCN(Cc2ccc3nsnc3c2)CC1", "cytotoxicity at 70.5 h": -7}
{"molecule": "NS(=O)(=O)c1cnn(-c2ccc(NC(=O)C3CCCCC3)cn2)c1", "cytotoxicity at 70.5 h": -0.503}
{"molecule": "Cc1ccc(-n2ncc(C(=O)NC3CC(C)(C)NC(C)(C)C3)c2N)cc1", "cytotoxicity at 70.5 h": 19.8}
{"molecule": "O=C(CCc1cccc(Cl)c1)NS(=O)(=O)Cc1ccon1", "cytotoxicity at 70.5 h": 1.74}
{"molecule": "CC(O)CNc1nc(-c2cccnc2)nc2c1CCC2", "note": "(stereo not given)", "cytotoxicity at 70.5 h": 0.874}
{"molecule": "CC(C)(C)c1n[nH]c(C2CN(C(=O)CCC3CC3)CCO2)n1", "note": "(stereo not given)", "cytotoxicity at 70.5 h": -9.78}
{"molecule": "CC(C)n1c2ccccc2c2c1cc(C(=O)N(C)C)n2S(C)(=O)=O", "cytotoxicity at 70.5 h": 13.1}
{"molecule": "CC(C)CN(Cc1ccccn1)Cc1ccccc1C(=O)O", "cytotoxicity at 70.5 h": 14.4}
{"molecule": "CCc1nc(C)sc1CN1CCc2[nH]nc(-c3ccc(F)c(F)c3)c2C1", "cytotoxicity at 70.5 h": -5.32}
{"molecule": "CCc1ncc2c(n1)CN(CC(=O)Nc1cccnc1)CC2", "cytotoxicity at 70.5 h": 10.9}
{"molecule": "CCC(CC)C(=O)N1CCC2(C1)CN(c1ccccc1)C(=O)CN2C", "note": "(stereo not given)", "cytotoxicity at 70.5 h": -20.2}
{"molecule": "COc1cc(CN(C)C(=O)NCc2cccc3c2OCO3)ccc1SC", "cytotoxicity at 70.5 h": -6.35}
{"molecule": "c1ccc(Oc2ccc(CNCC3CNc4ccnn4C3)cn2)cc1", "note": "(stereo not given)", "cytotoxicity at 70.5 h": -9.82}
{"molecule": "Cc1c[nH]c(C2COCCN2C(=O)c2ccc(=O)[nH]n2)n1", "note": "(stereo not given)", "cytotoxicity at 70.5 h": -4.98}
{"molecule": "N#Cc1cccc(CS(=O)(=O)NCCC(O)c2ccccc2)c1", "note": "(stereo not given)", "cytotoxicity at 70.5 h": -10}
{"molecule": "Cn1cc(N2CCCC(Oc3ccc(F)cc3Cl)C2=O)cn1", "note": "(stereo not given)", "cytotoxicity at 70.5 h": -4.99}
{"molecule": "COc1ccc2c(c1)OCC(Cc1cncc(N)c1)C2", "note": "(stereo not given)", "cytotoxicity at 70.5 h": 8.44}
{"molecule": "O=C(CCNS(=O)(=O)c1ccc(Cl)cc1)NCc1ccoc1", "cytotoxicity at 70.5 h": -5.84}
{"molecule": "CNC(=O)NCC1CCC2(CCN(C(=O)c3cccnc3)CC2)CO1", "note": "(stereo not given)", "cytotoxicity at 70.5 h": 3.36}
{"molecule": "C=C(C)CN(CC)C(=O)CN(C)C1CCc2ccccc21", "note": "(stereo not given)", "cytotoxicity at 70.5 h": -2.32}
{"molecule": "CN(C)C(=O)CN1CCCc2c(F)cc(Br)cc21", "cytotoxicity at 70.5 h": -2.61}
{"molecule": "Cc1cnn(CC2CCCN2CC(=O)N(C)Cc2cnn(C)c2)c1", "note": "(stereo not given)", "cytotoxicity at 70.5 h": -1.69}
